Measurements from US10829796B2, “Bacteria identification and antimicrobial susceptibility test” (priority 2015, dated 2020).

Legend:
Assay in all cases: Antibiotic susceptibility testing (colour of media), spiked milk
Assay type in all cases: cell-based
[1] = tested on: Staphylococcus aureus; conditions: T~16 h, 37° C., plate configuration #3
[2] = tested on: Streptococcus uberis; conditions: T~16 h, 37° C., bacteria samples 6d, plate configuration #3
[3] = tested on: Escherichia coli; conditions: 37° C., plate configuration #3

Cc1onc(-c2ccccc2Cl)c1C(=O)N[C@@H]1C(=O)N2[C@@H]1SC(C)(C)[C@@H]2C(=O)O [cloxacillin]
Colour of media in each well ([1]; bacteria samples 5c, Benzyl Penicillin or Cloxacillin 1 μg/ml): red
Colour of media in each well ([1]; bacteria samples 5c, Benzyl Penicillin or Cloxacillin 10 μg/ml): red
Colour of media in each well ([1]; bacteria samples 5c, Benzyl Penicillin or Cloxacillin 100 μg/ml): red
Colour of media in each well ([1]; bacteria samples 5c, Benzyl Penicillin or Cloxacillin 1,000 μg/ml): red
Colour of media in each well ([1]; bacteria samples 5c, Benzyl Penicillin or Cloxacillin 10,000 μg/ml): red
Colour of media in each well ([1]; bacteria samples 5e, Benzyl Penicillin or Cloxacillin 1 μg/ml): red
Colour of media in each well ([1]; bacteria samples 5e, Benzyl Penicillin or Cloxacillin 10 μg/ml): red
Colour of media in each well ([1]; bacteria samples 5e, Benzyl Penicillin or Cloxacillin 100 μg/ml): red
Colour of media in each well ([1]; bacteria samples 5e, Benzyl Penicillin or Cloxacillin 1,000 μg/ml): red
Colour of media in each well ([1]; bacteria samples 5e, Benzyl Penicillin or Cloxacillin 10,000 μg/ml): red
Colour of media in each well ([2]; Benzyl Penicillin or Cloxacillin 1 μg/ml): red
Colour of media in each well ([2]; Benzyl Penicillin or Cloxacillin 10 μg/ml): red
Colour of media in each well ([2]; Benzyl Penicillin or Cloxacillin 100 μg/ml): red
Colour of media in each well ([2]; Benzyl Penicillin or Cloxacillin 1,000 μg/ml): red
Colour of media in each well ([2]; Benzyl Penicillin or Cloxacillin 10,000 μg/ml): red
Colour of media in each well ([3]; T~16 h, bacteria samples 4c, Benzyl Penicillin or Cloxacillin 1 μg/ml): yellow
Colour of media in each well ([3]; T~16 h, bacteria samples 4c, Benzyl Penicillin or Cloxacillin 10 μg/ml): yellow
Colour of media in each well ([3]; T~16 h, bacteria samples 4c, Benzyl Penicillin or Cloxacillin 100 μg/ml): yellow
Colour of media in each well ([3]; T~16 h, bacteria samples 4c, Benzyl Penicillin or Cloxacillin 1,000 μg/ml): yellow
Colour of media in each well ([3]; T~16 h, bacteria samples 4c, Benzyl Penicillin or Cloxacillin 10,000 μg/ml): red
Colour of media in each well ([3]; t~16 h, bacteria samples 4e, Benzyl Penicillin or Cloxacillin 1 μg/ml): yellow
Colour of media in each well ([3]; t~16 h, bacteria samples 4e, Benzyl Penicillin or Cloxacillin 10 μg/ml): yellow
Colour of media in each well ([3]; t~16 h, bacteria samples 4e, Benzyl Penicillin or Cloxacillin 100 μg/ml): yellow
Colour of media in each well ([3]; t~16 h, bacteria samples 4e, Benzyl Penicillin or Cloxacillin 1,000 μg/ml): red
Colour of media in each well ([3]; t~16 h, bacteria samples 4e, Benzyl Penicillin or Cloxacillin 10,000 μg/ml): red
